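Step 1: Grow cells in 96-well plates. Step 2: Expose to compound for 48 hours at 5 concentrations. Step 3: Interpolate endpoints linearly; if unreached, use highest concentration. The concentration for full growth arrest is given as TGI.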
Experiments:
Assay in all cases: inhibition of tumour cell growth, NCI panel, 48 h
M14 melanoma = system: M14 melanoma
SF-295 CNS = system: SF-295 CNS
RPMI-8226 leukemia = system: RPMI-8226 leukemia
OVCAR-4 ovarian = system: OVCAR-4 ovarian
DMS 273 small cell lung = system: DMS 273 small cell lung
SK-OV-3 ovarian = system: SK-OV-3 ovarian
OVCAR-5 ovarian = system: OVCAR-5 ovarian
TK-10 renal = system: TK-10 renal
HL-60(TB) leukemia = system: HL-60(TB) leukemia
DMS 114 small cell lung = system: DMS 114 small cell lung
K-562 leukemia = system: K-562 leukemia
SF-539 CNS = system: SF-539 CNS
SN12C renal = system: SN12C renal
LOX IMVI melanoma = system: LOX IMVI melanoma
CCRF-CEM leukemia = system: CCRF-CEM leukemia
SF-268 CNS = system: SF-268 CNS
U251 CNS = system: U251 CNS
UO-31 renal = system: UO-31 renal
SNB-78 CNS = system: SNB-78 CNS
NCI-H226 lung = system: NCI-H226 lung
NCI-H460 lung = system: NCI-H460 lung
SNB-75 CNS = system: SNB-75 CNS
OVCAR-3 ovarian = system: OVCAR-3 ovarian
RXF 393 renal = system: RXF 393 renal
DLD-1 colon = system: DLD-1 colon
NCI-H522 lung = system: NCI-H522 lung
UACC-257 melanoma = system: UACC-257 melanoma
HCC-2998 colon = system: HCC-2998 colon
NCI-H23 lung = system: NCI-H23 lung
IGROV1 ovarian = system: IGROV1 ovarian
COLO 205 colon = system: COLO 205 colon
MOLT-4 leukemia = system: MOLT-4 leukemia
HT29 colon = system: HT29 colon
A549 NSCLC = system: A549 NSCLC
HCT-116 colon = system: HCT-116 colon
UACC-62 melanoma = system: UACC-62 melanoma
HOP-62 NSCLC = system: HOP-62 NSCLC
SW-620 colon = system: SW-620 colon
KM20L2 colon = system: KM20L2 colon
SR leukemia = system: SR leukemia
CAKI-1 renal = system: CAKI-1 renal
MALME-3M melanoma = system: MALME-3M melanoma
KM12 colon = system: KM12 colon
786-0 renal = system: 786-0 renal
OVCAR-8 ovarian = system: OVCAR-8 ovarian
XF 498 CNS = system: XF 498 CNS
SK-MEL-5 melanoma = system: SK-MEL-5 melanoma
SK-MEL-28 melanoma = system: SK-MEL-28 melanoma
HOP-92 NSCLC = system: HOP-92 NSCLC
HCT-15 colon = system: HCT-15 colon
ACHN renal = system: ACHN renal
LXFL 529 NSCLC = system: LXFL 529 NSCLC
SK-MEL-2 melanoma = system: SK-MEL-2 melanoma
SNB-19 CNS = system: SNB-19 CNS
EKVX NSCLC = system: EKVX NSCLC
M19-MEL melanoma = system: M19-MEL melanoma

Measured: TGI

OCCCCOC(c1ccccc1)(c1ccccc1)c1ccccc1
not listed: SK-MEL-2 melanoma | SNB-19 CNS | EKVX NSCLC | M19-MEL melanoma
> 100 µM: all other assays above

CN(C)CCCNC(=O)c1cccc2ccccc12
not listed: M14 melanoma | RPMI-8226 leukemia | OVCAR-5 ovarian | UO-31 renal | HCC-2998 colon | IGROV1 ovarian | COLO 205 colon | HOP-62 NSCLC | KM20L2 colon | SR leukemia | CAKI-1 renal | 786-0 renal | HOP-92 NSCLC | EKVX NSCLC | M19-MEL melanoma
> 100 µM: all other assays above

c1ccc(C2N=NN(c3ccccc3)C2N2CCCCC2)cc1 (stereo not given)
55 µM: SNB-75 CNS
62.4 µM: HOP-92 NSCLC
98.3 µM: SK-OV-3 ovarian
not listed: DMS 273 small cell lung | NCI-H460 lung | RXF 393 renal | OVCAR-8 ovarian
> 100 µM: all other assays above

Reference: PubChem BioAssay (NCI)
